According to patent publication US4456594A, “N-Carboxyalkylproline-containing tripeptides” (SmithKline Beckman Corporation, priority 1982, dated 1984):
Counter-ions that a name gives are not always drawn. One block for each compound: values may come before it.

Experiments:
anesthetized dogs = assay: renal vasodilator activity test in anesthetized dogs (infusion); format: in vivo, dog; conditions: for renal vasodilator activity: primary test period of the renal anesthetized dog screening protocol
Source text: Representative specific results are included in the examples.

[1] = bradycardic effect (heart rate), test not stated; conditions: in vivo
toad bladder = toad bladder anti-ADH assay
[2] = test system: spontaneously hypertensive rats; assay: spontaneously hypertensive rat (SHR) diuretic naturetic assay; format: in vivo; conditions: 25 and 50 mg/kg i.p.
Method: In this test, male, Okamato-Aoki strain, spontaneously hypertensive rats, aged 16-19 weeks, are fasted, then, the following afternoon, the first dose of test compound is administered, along with a 25 ml/kg p.o. load of normal saline. The animals are, then, placed in metabolism cages and urine collected for three hours for analysis. Indirect systolic blood pressure and heart rate are measured by a tail-cuff. An identical second dose of test compound is administered. After two hours, blood pressure and heart rate are again tested. The test compound is usually administered p.o. or i.p. in saline with 0.02% ascorbic acid.

[3] = test system: dopamine-sensitive adenylate cyclase system; assay: dopamine-sensitive adenylate cyclase system in vitro; format: biochemical
[4] = test system: angiotensin coverting enzyme; assay: angiotensin converting enzyme inhibiting activity; format: in vivo; conditions: at 10 times its renally effective dose
[5] = two anesthetized dogs, 3, 30 and 300 μg/kg/min

Structure (SMILES): O=C(O)CN1CCC[C@H]1C(=O)NCC(=O)N1CCC[C@H]1C(=O)O [N-carboxymethyl-prolyl-glycyl-L-proline]
renal vasodilator activity (anesthetized dogs): inactive

Structure (SMILES): O=C(O)CN1CCC[C@H]1C(=O)N[C@@H](Cc1ccccc1)C(=O)N1CCC[C@H]1C(=O)O [Example 2 sulfate, N-carboxymethyl-L-prolyl-L-phenylalanyl-L-proline]
renal blood flow (qualitative) (anesthetized dogs; 30 and 300 μg/kg/min): increased renal blood flow

Structure (SMILES): NCCc1ccc(O)c(O)c1 [dopamine]
RVR-ED15 (anesthetized dogs; secondary test in three dogs, i.v.): 3.5 µg/kg

stimulation or antagonism of dopamine-sensitive adenylate cyclase [3]: did not stimulate or antagonize
Structure (SMILES): O=C(O)CN1CCC[C@H]1C(=O)NCCC(=O)N1CCC[C@H]1C(=O)O.O=S(=O)(O)O [Example 3, N-carboxymethyl-L-prolyl-β-alanyl-L-proline sulfate]
bradycardic effect [1]: weak bradycardic effect
anti-ADH activity (toad bladder): nor was it active
Na+, K+ or urine excretion (qualitative) [2]: significant increase
renal blood flow (qualitative) (anesthetized dogs; [5]): increased renal blood flow
renal vascular resistance (qualitative) (anesthetized dogs; [5]): decreased renal vascular resistance
angiotensin converting enzyme inhibiting activity [4]: did not have angiotensin coverting enzyme inhibiting activity

Structure (SMILES): CC(C(=O)O)N1CCC[C@H]1C(=O)NCCC(=O)N1CCC[C@H]1C(=O)O (stereo partly drawn) [N-(1-carboxyethyl)-L-prolyl-β-alanyl-L-proline]
renal vasodilator activity (anesthetized dogs): inactive

Structure (SMILES): NCCCC[C@H](NC(=O)[C@@H]1CCCN1CC(=O)O)C(=O)N1CCC[C@H]1C(=O)O [N-carboxymethyl-L-prolyl-L-lysyl-L-proline]
renal vasodilator activity (anesthetized dogs): inactive
